The record followed here is patent US12178800B2, “Sulforaphane-melatonin-like compound” (priority 2018, dated 2024).

One test has as its system irradiated skin of pigs. Kind of test: Skin biopsy histology (hematoxylin and eosin): basal cell density and epidermal thickness. Format: in vivo, Gottingen mini-pigs. Here is the method: A 5 mm punch biopsy was performed under anesthesia to obtain a skin sample from the non-irradiated healthy skin and the irradiated skin area 3, 7, 21, and 35 days after irradiation. After collection, skin biopsy samples were pinned to a cork to maintain the 5 mm size. Biopsy samples of non-irradiated skin were obtained from each pig before irradiation. All biopsy samples were processed and embedded in paraffin wax after fixation in 10% buffered formalin, then cut into 4 μm thick coronal sections and deparaffinized. Next, the sections were stained with hematoxylin and eosin and examined by optical microscopy. The longest rete ridge on each slide was selected and measured from the bottom of the basal layer to the bottom of the stratum corneum, avoiding the areas in which the inclusion appeared to be oblique. The mean values were then calculated based on the measurements of each section on each slide. The cell density of the basal layers was determined by counting the cells in the basement membrane at a depth of at least 5 mm. The results were expressed as the number of cells per millimeter of basement membrane.
The data were expressed as the means±the standard error of the mean (SEM) values. Differences between groups were evaluated by one-way analysis of variance (ANOVA) followed by a Student-Newman-Keuls post hoc test for multiple comparisons. In all cases, a p<0.05 was considered significant.

For another test, the system named is nuclear factor (NF)-κB. Kind of test: NF-κB immunohistochemistry of irradiated skin. Format: in vivo, Gottingen mini-pigs. Here is the method: After incubation in normal horse serum for 60 min to prevent nonspecific binding, the skin sections were incubated with mouse anti-nuclear factor (NF)-κB (sc-109, 1:200; Santa Cruz Biotechnology, Santa Cruz, CA, USA) and mouse anti-COX-2 (18-7379, 1:200; Zymed, USA) in phosphate buffered saline-Tween (PBS-T overnight at 4° C. The sections were subsequently incubated with biotinylated horse anti-mouse IgG (VECTASTAIN Elite ABC Kit; Vector Laboratories, USA). The immunoreactivity was assessed using the avidin-biotin peroxidase complex (VECTASTAIN Elite ABC Kit; Vector Laboratories). The peroxidase reaction was developed using a diaminobenzidine substrate kit (DAB Substrate Kit SK-4100; Vector Laboratories). As a control, the primary antibodies were omitted from the immunohistochemical analysis of a few test sections in each experiment. The sections were then counterstained with hematoxylin before being mounted.

The next test concerns biopsy wound. Put plainly: Healing of biopsy wounds in irradiated skin. Format: in vivo, Gottingen mini-pigs. To be noted: biopsy wound 3 days after irradiation.
For test [1], the system named is mouse tongues. Put plainly: X-ray-induced oral mucositis in mice: oral mucositis score. Format: in vivo, ICR mice. The protocol:
In a second example for illustrating embodiments of the present invention, six-week-old ICR mice (30-40 g) obtained from Institute of Animal Breeding and Genetics, University of Gottingen, Germany were used. The animals were housed in a room maintained at 22±2° C. under a 12-h light-dark cycle with lights on at 7:00 a.m. Mice were fed a standard rodent diet and had free access to water. In addition, no antibiotic supplements were used. All animal experiments were performed in compliance to The German Animal Welfare Act. The mice (n=20 per group) were anesthetized (pentobarbital sodium, 50 mg/kg body weight, i.p.) and then irradiated. Mice had to be irradiated only at the tip of the tongue, so the rest of the body was shielded with a lead device (thickness, 0.5 mm). The tongue was fixed to the outer surface of the lead device using adhesive tape and irradiated with a single radiation dose of 20 Gy. Radiation was generated using a 150 kV potential (20 mA) X-ray source at a focal distance of 350 mm and beam-hardened by a 1.0-mm aluminum filtration system (MBR-1520R-3; Hitachi, Tokyo, Japan). The dose rate was 5.1 Gy/min. The 6OHM-6-HITC compound was dissolved in a small volume of 1 M NaOH solution. The pH was adjusted to 7 with 1 M HCL. The concentration was adjusted to 3 mg/mL or 15 mg/mL in 0.9% (physiologic) saline solution. The body weight was recorded and the tongues were observed daily after irradiation. 6OHM-6-HITC was injected via the intraperitoneal route 30 min before irradiation. The control group was irradiated but without administering the 6OHM-6-HITC compound.
The scoring of oral mucositis was based on a modification of the method of Sonis et al. To assess the severity of oral mucositis, mice were anesthetized with isoflurane every day. The oral mucositis score was: 0=normal; 1=partial hyperemia, erythema and swelling; 2=overall hyperemia, erythema and swelling; 3=epidermolysis, hyperemia and erythema; 4=extensive epidermolysis and bleeding; 5=bleeding and abscesses. Myeloperoxidase (MPO) activity is a marker for neutrophils in inflamed tissue. MPO activity was measured in mouse tongues using a modification of the method of Chen et al. After mice had been killed by cervical dislocation 12 days after irradiation, tongue samples (n=10 per group) were removed and stored at −70° C. until required for assay. […] MPO activity was measured using a Microplate Reader (NJ-2300; Biotec, Tokyo, Japan) at 450 nm. MPO activity was calculated by measuring the slope of absorbance calibrated using MPO standards (Wako Biochemicals) and expressed as MPO/g tongue. […] TBARS levels were measured using the Microplate Reader (Biotec) at 540 nm. TBARS levels were calculated by measuring the slope of absorbance calibrated using TBARS standards and expressed as TBARS/g tongue. […]

Test [2] concerns mouse tongues. Kind of test: Histopathology (H&E) of tongue specimens after X-ray irradiation. The test is classed as in vivo, ICR mice. To be noted: 12 days post-irradiation.

Regarding `COc1cc2c(CCCCN=C=S)c[nH]c2cc1O` [6OHM-6-HITC], the “basal cell counts (density) in the epidermis” value in the test on irradiated skin of pigs (21 days after irradiation, p<0.01 vs. vehicle-treated irradiation group) is listed as “significantly ameliorated”; in the test on irradiated skin of pigs (35 days after irradiation, p<0.05 vs. vehicle-treated irradiation group), “significantly ameliorated”. In the test with irradiated skin of pigs (35 days after irradiation, p<0.01 vs. vehicle-treated irradiation group), the “thickness of the epidermis” value is reported as “prevented this decrease”. In addition, the “NF-κB expression in irradiated skin vs. vehicle-treated irradiated skin” value with nuclear factor (NF)-κB (7, 21 and 35 days after irradiation) is “lower”. In addition, the “nuclear NF-κB expression” value in the test on nuclear factor (NF)-κB (irradiated skin, treated) was “rapidly decreased”. In the test with biopsy wound, the “healing of the biopsy wound” value was “attenuated the radiation-induced delayed healing”. The “total oral mucositis score between day-0 and day-12 vs. control group” value with mouse tongues [1] (30 mg/kg i.p.) and with mouse tongues [1] (300 mg/kg i.p.) was “significantly lower” in each case. In addition, the “oral mucositis score vs. control group” value in the test on mouse tongues [1] (300 mg/kg i.p., day-10) was “significantly lower”; with mouse tongues [1] (300 mg/kg i.p., day-12), “significantly lower”. Further, the “degree of epidermolysis of the tongue” value in the test on mouse tongues [2] is recorded as “preserved”. The “infiltration of inflammatory cells” value in the test on mouse tongues [2] is “decreased”.
